US20120035218A1, “PEST CONTROL COMPOSITION” (SUMITOMO CHEMICAL COMPANY, LIMITED, priority 2010, published 2012)

System: cat fleas
Test: Cat flea emergence inhibition from eggs on treated flea-rearing medium
Assay type: in vivo
Details: 20 flea eggs, after approximately three weeks, corrected against acetone control
Protocol: Six gram quantities of medium for rearing fleas (mixed to make sand/powdered feed/dry yeast/dry bovine blood=80/16/3/1 wt %) were placed in vials. Acetone solutions were prepared so that the hydrazide compounds and pyriproxyfen would have the concentrations (wt % versus the medium) shown in Table 2 in the treated medium for rearing fleas. The medium was treated by 1.0 mL of the acetone solution, stirred until homogeneous, and dried. Filter paper (TOYO No. 2; 3.8 cm in diameter) was placed on aluminum dishes 3.8 cm in diameter, and 20 flea eggs were placed on the filter paper using a suitably moistened brush. A quantity of 1.0 g of the dried, treated medium was placed evenly on top of the filter paper on which the eggs rested, and the aluminum dishes were placed in resin petri dishes and stored at a temperature of 26° C. and humidity of 85-95%. Medium that had been treated only by acetone was also processed by the same method as a control group. After approximately three weeks, the emergence of the cat fleas was examined, and the emergence inhibition rate was calculated by the following formula.
Corrected emergency inhibition rate=(C−T)÷C×100
C: Emergence rate of untreated control group
T: Emergence rate of treated group

[1] = hydrazide compound 0.4 × 10^−4 % in combination with pyriproxyfen 10^−8 % (wt % versus the medium)
[2] = hydrazide compound alone, 0.4 × 10^−4 % (wt % versus the medium)

SMILES | Emergence inhibition rate (%) [1] [%] | Emergence inhibition rate (%) [2] [%] | Emergence inhibition rate (%) (pyriproxyfen alone, 10^−8 % (wt % versus the medium))
CN(NC(=O)CCC(F)(F)F)c1cc(C2=NOC(c3cc(Cl)cc(Cl)c3)(C(F)(F)F)C2)ccc1Cl (centres unmarked) [Hydrazide compound (31), N′-methyl-N′-{2-chloro-5-[5-(3,5-dichlorophenyl)-5-trifluoromethyl-4,5-dihydroisoxazol-3-yl]phenyl}-4,4,4-trifluorobutyrohydrazide] | 86 | 34 | –
CC(COc1ccc(Oc2ccccc2)cc1)Oc1ccccn1 (centres unmarked) [Pyriproxyfen, 4-phenoxyphenyl=2-(pyridyloxy)propyl=ether, reference compound] | – | – | 4.0
O=C(CCC(F)(F)F)NNc1cc(C2=NOC(c3cc(Cl)cc(Cl)c3)(C(F)(F)F)C2)ccc1Cl (centres unmarked) [Hydrazide compound (17), N′-{5-[5-(3,5-dichlorophenyl)-5-trifluoromethyl-4,5-dihydroisoxazol-3-yl]-2-chlorophenyl}-4,4,4-trifluorobutyrohydrazide] | 63 | 6.3 | –
